In patent US6914045B2, “Glycopeptide antibiotics” (Wyeth Holdings Corporation, priority 2001, dated 2005):
≈ marks a conversion by molar mass, not a printed value.

What was measured:
Experiment in all cases: in vitro antibacterial evaluation, MIC by broth dilution
Format in all cases: cell-based
Streptococcus sp. = details: broth dilution, 18 hours at 35° C.
Procedure, shortened: (§1)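 Test organisms, which included recent clinical isolates resistant to methicillin, penicillin and/or vancomycin, were inoculated at 5×10^5 CFU/mL into Muller-Hinton II […] containing antibiotic at 64-0.06 μg/mL. Minimum inhibitory concentrations were then read as the lowest level inhibiting growth.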

Enterococcus sp. = details: broth dilution, 18 hours at 35° C.; for MIC Enterococcus faecalis (ATCC 29212): strain ATCC 29212; for MIC Enterococcus faecium (GC 2243): strain GC 2243; for MIC Enterococcus faecalis (GC 4552): strain GC 4552; for MIC Enterococcus faecalis (GC 4553): strain GC 4553; for MIC Enterococcus faecalis (GC 4554): strain GC 4554; for MIC Enterococcus faecium (GC 4556): strain GC 4556; for MIC Enterococcus faecium (GC 4557): strain GC 4557; for MIC Enterococcus avium (GC 4558): strain GC 4558; for MIC Enterococcus faecalis (GC 6189): strain GC 6189
Procedure, shortened: as §1

Escherichia coli = system: Escherichia coli
Procedure, shortened: as §1

Staphylococcus sp. = details: broth dilution, 18 hours at 35° C.; for MIC Staphylococcus aureus (GC 1131): strain GC 1131
Procedure, shortened: as §1

MIC Streptococcus agalactiae (GC 4564) (Streptococcus sp.; Streptococcus agalactiae (GC 4564)): 1 µg/mL (≈ 0.683 µM)
MIC Streptococcus pneumoniae (ATCC 6301) (Streptococcus sp.; Streptococcus pneumoniae (ATCC 6301)): 0.5 µg/mL (≈ 0.341 µM)
MIC Streptococcus pneumoniae (GC 1894) (Streptococcus sp.; Streptococcus pneumoniae (GC 1894)): 0.12 µg/mL (≈ 0.0819 µM)
MIC Streptococcus pneumoniae (GC 4565) (Streptococcus sp.; Streptococcus pneumoniae (GC 4565)): 0.5 µg/mL (≈ 0.341 µM)
MIC Streptococcus pyogenes (GC 4563) (Streptococcus sp.; Streptococcus pyogenes (GC 4563)): 1 µg/mL (≈ 0.683 µM)
MIC Streptococcus pneumoniae (ATCC 6301) (Streptococcus sp.; strain ATCC 6301): 0.5 µg/mL (≈ 0.341 µM)
MIC Streptococcus pneumoniae (GC 1894) (Streptococcus sp.; strain GC 1894): 0.12 µg/mL (≈ 0.0819 µM)
MIC Streptococcus pyogenes (GC 4563) (Streptococcus sp.; strain GC 4563): 1 µg/mL (≈ 0.683 µM)
MIC Streptococcus agalactiae (GC 4564) (Streptococcus sp.; strain GC 4564): 1 µg/mL (≈ 0.683 µM)
MIC Streptococcus pneumoniae (GC 4565) (Streptococcus sp.; strain GC 4565): 0.5 µg/mL (≈ 0.341 µM)
MIC Enterococcus faecalis (GC 2242) (Enterococcus sp.; Enterococcus faecalis (GC 2242)): 16 µg/mL (≈ 10.9 µM)
MIC Enterococcus faecalis (GC 2691) (Enterococcus sp.; Enterococcus faecalis (GC 2691)): 16 µg/mL (≈ 10.9 µM)
MIC Enterococcus faecalis (GC 3059) (Enterococcus sp.; Enterococcus faecalis (GC 3059)): 16 µg/mL (≈ 10.9 µM)
MIC Enterococcus faecalis (ATCC 29212) (Enterococcus sp.; inoculum 5×10^5 CFU/mL): 16 µg/mL (≈ 10.9 µM)
MIC Enterococcus faecium (GC 2243) (Enterococcus sp.; inoculum 5×10^5 CFU/mL): 16 µg/mL (≈ 10.9 µM)
MIC Enterococcus faecalis (GC 4552) (Enterococcus sp.; inoculum 5×10^5 CFU/mL): 16 µg/mL (≈ 10.9 µM)
MIC Enterococcus faecalis (GC 4553) (Enterococcus sp.; inoculum 5×10^5 CFU/mL): 16 µg/mL (≈ 10.9 µM)
MIC Enterococcus faecalis (GC 4554) (Enterococcus sp.; inoculum 5×10^5 CFU/mL): 16 µg/mL (≈ 10.9 µM)
MIC Enterococcus faecium (GC 4556) (Enterococcus sp.; inoculum 5×10^5 CFU/mL): 16 µg/mL (≈ 10.9 µM)
MIC Enterococcus faecium (GC 4557) (Enterococcus sp.; inoculum 5×10^5 CFU/mL): 8 µg/mL (≈ 5.46 µM)
MIC Enterococcus avium (GC 4558) (Enterococcus sp.; inoculum 5×10^5 CFU/mL): 16 µg/mL (≈ 10.9 µM)
MIC Enterococcus faecalis (GC 6189) (Enterococcus sp.; inoculum 5×10^5 CFU/mL): 16 µg/mL (≈ 10.9 µM)
MIC Enterococcus faecalis (ATCC 29212) (Enterococcus sp.): 16 µg/mL (≈ 10.9 µM)
MIC Enterococcus faecalis (GC 2242) (Enterococcus sp.; strain GC 2242): 16 µg/mL (≈ 10.9 µM)
MIC Enterococcus faecium (GC 2243) (Enterococcus sp.): 16 µg/mL (≈ 10.9 µM)
MIC Enterococcus faecalis (GC 2691) (Enterococcus sp.; strain GC 2691): 16 µg/mL (≈ 10.9 µM)
MIC Enterococcus faecalis (GC 3059) (Enterococcus sp.; strain GC 3059): 16 µg/mL (≈ 10.9 µM)
MIC Enterococcus faecalis (GC 4552) (Enterococcus sp.): 16 µg/mL (≈ 10.9 µM)
MIC Enterococcus faecalis (GC 4553) (Enterococcus sp.): 16 µg/mL (≈ 10.9 µM)
MIC Enterococcus faecalis (GC 4554) (Enterococcus sp.): 16 µg/mL (≈ 10.9 µM)
MIC Enterococcus faecium (GC 4556) (Enterococcus sp.): 16 µg/mL (≈ 10.9 µM)
MIC Enterococcus faecium (GC 4557) (Enterococcus sp.): 8 µg/mL (≈ 5.46 µM)
MIC Enterococcus avium (GC 4558) (Enterococcus sp.): 16 µg/mL (≈ 10.9 µM)
MIC Enterococcus faecalis (GC 6189) (Enterococcus sp.): 16 µg/mL (≈ 10.9 µM)
MIC Escherichia coli (ATCC 25922) (Escherichia coli; strain ATCC 25922, 18 hours at 35° C.): >64 µg/mL
MIC Escherichia coli (GC 4559) (Escherichia coli; strain GC 4559, 18 hours at 35° C.): >64 µg/mL
MIC Escherichia coli (GC 4560) (Escherichia coli; strain GC 4560, 18 hours at 35° C.): 2 µg/mL (≈ 1.37 µM)
MIC Staphylococcus aureus (GC 1131) (Staphylococcus sp.; inoculum 5×10^5 CFU/mL): 8 µg/mL (≈ 5.46 µM)
MIC Staphylococcus aureus (ATCC 29213) (Staphylococcus sp.; strain ATCC 29213): 4 µg/mL (≈ 2.73 µM)
MIC Staphylococcus aureus (GC 1131) (Staphylococcus sp.): 8 µg/mL (≈ 5.46 µM)
MIC Staphylococcus aureus (GC 3051) (Staphylococcus sp.; strain GC 3051): 8 µg/mL (≈ 5.46 µM)
MIC Staphylococcus aureus (GC 3053) (Staphylococcus sp.; strain GC 3053): 8 µg/mL (≈ 5.46 µM)
MIC Staphylococcus aureus (GC 4541) (Staphylococcus sp.; strain GC 4541): 4 µg/mL (≈ 2.73 µM)
MIC Staphylococcus aureus (GC 4542) (Staphylococcus sp.; strain GC 4542): 4 µg/mL (≈ 2.73 µM)
MIC Staphylococcus aureus-SMITH (GC 4543) (Staphylococcus sp.; strain GC 4543): 4 µg/mL (≈ 2.73 µM)
MIC Staphylococcus aureus (GC 4544) (Staphylococcus sp.; strain GC 4544): 8 µg/mL (≈ 5.46 µM)
MIC Staphylococcus aureus (GC 4545) (Staphylococcus sp.; strain GC 4545): 4 µg/mL (≈ 2.73 µM)
MIC Coagulase Negative Staphylococcus (GC 4547) (Staphylococcus sp.; strain GC 4547): 4 µg/mL (≈ 2.73 µM)
MIC Coagulase Negative Staphylococcus (GC 4548) (Staphylococcus sp.; strain GC 4548): 2 µg/mL (≈ 1.37 µM)
MIC Coagulase Negative Staphylococcus (GC 4549) (Staphylococcus sp.; strain GC 4549): 2 µg/mL (≈ 1.37 µM)
MIC Coagulase Negative Staphylococcus (GC 4551) (Staphylococcus sp.; strain GC 4551): 8 µg/mL (≈ 5.46 µM)
MIC Coagulase Negative Staphylococcus (GC 6257) (Staphylococcus sp.; strain GC 6257): 2 µg/mL (≈ 1.37 µM)
MIC Staphylococcus aureus-SMITH (GC 4543) (Staphylococcus sp.; strain SMITH GC 4543): 4 µg/mL (≈ 2.73 µM)
Compound: CC(=O)n1cc(C2OCC3OC(OC4C(CO)OC(Oc5ccc(CC6NC(=O)C(C(C)c7ccccc7)NC(=O)CNC(=O)C(CO)NC(=O)C(C(O)C7CNC(=N)N7C7OC(CO)C(O)C(O)C7O)NC(=O)C(C(O)C7CNC(=N)N7)NC6=O)cc5)C(O)C4O)C(O)C(O)C3O2)c2ccccc21 (stereo not drawn) [Example 161]
MIC Staphylococcus haemolyticus (GC 4546) (Staphylococcus sp.; strain GC 4546): 4 µg/mL (≈ 2.73 µM)
